Results from patent US10196364B2, “Pyrimidine carboxamides as sodium channel blockers” (Purdue Pharma L.P., priority 2013, dated 2019).
pIC50: −log10 of the molar value.

How the values were obtained:
[1] = test system: SNL-induced mechanical hyperalgesia; assay: SNL-induced mechanical hyperalgesia model in rats (paw pressure test, PWT); assay type: in vivo, rat; settings: dosed orally at 100 mg/kg (vehicle: 0.5% methyl cellulose) one hour before testing
Protocol: Each experiment uses rats weighing between 200-260 g at the start of the experiment. The rats are group-housed and have free access to food and water at all times, except prior to oral administration of a test compound when food is removed for 16 h before dosing. A control group acts as a comparison to rats treated with a Compound of the Disclosure. The control group is administered the carrier as used for the test compound. The volume of carrier administered to the control group is the same as the volume of carrier and test compound administered to the test group. In the Chung model, the spinal nerve ligation (SNL) model of neuropathic pain is used to produce mechanical hyperalgesia, thermal hyperalgesia, and tactile allodynia in rats. Surgery is performed under isoflurane/O2 inhalation anesthesia. Following induction of anesthesia a 3 cm incision is made and the left paraspinal muscles are separated from the spinous process at the L4-S2 levels. The L6 transverse process is carefully removed with a pair of small rongeurs to identify visually the L4-L6 spinal nerves. […] The animals are assessed for response to noxious mechanical stimuli by determining PWT, as described below, prior to surgery (baseline), then immediately prior to and 1, 3, and 5 hours after being administered a Compound of the Disclosure or vehicle, for the left rear paw of the animal. The animals can also be assessed for response to noxious thermal stimuli or for tactile allodynia, as described below. […] Sensitivity to noxious mechanical stimuli was measured in animals using the paw pressure test to assess mechanical hyperalgesia. In rats, hind paw withdrawal thresholds (“PWT”), measured in grams, in response to a noxious mechanical stimulus were determined using an analgesymeter (Model 7200, commercially available from Ugo Basile of Italy), as described in Stein (Biochemistry & Behavior 31: 451-455 (1988)). […] PWT was determined once for each rat at each time point. PWT can be measured only in the injured paw, or in both the injured and non-injured paw. […]

[2] = biological target: human Nav1.7 (Homo sapiens, UniProt Q15858); assay: FLIPR membrane potential dye assay (alternative fluorescence assay) in Nav1.7 expressing cells; assay type: cell-based; settings: Table 7
[3] = biological target: hNav1.7 (Homo sapiens, UniProt Q15858); assay: Electrophysiology (EP) whole-cell patch clamp assay in hNav1.7 expressing HEK-293 cells; assay type: cell-based; settings: Table 7; affinity for inactivated channels; read-out: Nav1.7 Activity (μM) EP assay Ki
Protocol: The hNav1.7 expressing HEK-293 cells were plated on 35 mm culture dishes pre-coated with poly-D-lysine in standard DMEM culture media (Mediatech, Inc., Herndon, Va.) and incubated in a 5% CO2 incubator at 37° C. Cultured cells were used approximately 12-48 h after plating.
On the day of experimentation, the 35 mm dish was placed on the stage of an inverted microscope equipped with a perfusion system that continuously perfuses the culture dish with fresh recording media. A gravity driven superfusion system was used to apply test solutions directly to the cell under evaluation. This system consists of an array of glass pipette glass connected to a motorized horizontal translator. The outlet of the shooter was positioned approximately 100 μm from the cell of interest.
Whole cell currents were recorded using the whole-cell patch clamp configuration using an Axopatch 200B amplifier (Axon Instruments, Foster City Calif.), 1322A A/D converter (Axon Instruments) and pClamp software (v. 8; Axon Instruments) and stored on a personal computer. Gigaseals were formed and the whole-cell configuration was established in voltage clamp mode, and membrane currents generated by hNav1.7 were recorded in gap-free mode. Borosilicate glass pipettes have resistance values between 1.5 and 2.0 MΩ when filled with pipette solution and series resistance (<5 MΩ) was compensated 75-80%. Signals were sampled at 50 kHz and low pass filtered at 3 kHz.
After establishing the whole-cell configuration in voltage clamp mode, two voltage protocols were run to establish: 1) the holding potential; and 2) the test potential for each cell.
To determine a membrane potential at which the majority of channels are in the resting state, a standard steady-state inactivation (SSIN) protocol was run using 100 ms prepulses×10 mV depolarizing steps. The holding potential for testing resting block (Vh1) was 20 mV more hyperpolarized than the first potential where inactivation is observed with the inactivation protocol.
From this holding potential a standard I-V protocol was run to determine the potential at which the maximal current (Imax) was elicited. This potential was the test potential (Vt).
The compound testing protocol was a series of 10 ms depolarizations from the Vh1 (determined from the SSIN) to the Vt (determined from the I-V protocol) repeated every 10-15 seconds. […] Washout of the compound was attempted by superfusing with control solution once steady-state block was observed. The fractional response was calculated as follows: FR=I(after drug)/I(control), where I is the peak current amplitude and was used for estimating resting block dissociation constant, Kr: Kr=[drug]*{FR/(1−FR)}, where [drug] is the concentration of a drug.
To assess the block of inactivated channels the holding potential was depolarized such that 20-50% of the current amplitude was reduced when pulsed to the same Vt as above. The magnitude of this depolarization depends upon the initial current amplitude and the rate of current loss due to slow inactivation. This was the second holding potential (Vh2). The current reduction was recorded to determine the fraction of available channels at this potential (h). h=I@Vh2/Imax.
At this membrane voltage a proportion of channels are in the inactivated state, and thus inhibition by a blocker includes interaction with both resting and inactivated channels.
To determine the potency of the test compound on inactivated channels, a series of currents were elicited by 10 ms voltage steps from Vh2 to Vt every 10-15 seconds. After establishing a stable baseline, the low concentration of the compound was applied. Multiple cumulative concentrations may have to be applied to identify a concentration that will block between 40-60% of the current. Washout was attempted to re-establish baseline. Fractional responses were measured with respect to a projected baseline to determine Kapp. Kapp=[drug]*{FR/(1−FR)}, where [drug] is the concentration of a drug. […]

[4] = biological target: Nav1.8 (Homo sapiens, UniProt Q9Y5Y9); settings: read-out: TTX IC50; cited from earlier work
[5] = biological target: Nav1.3 (Homo sapiens, UniProt Q9NY46); settings: read-out: TTX IC50; cited from earlier work
Sequence of Nav1.3 (Q9NY46 whole entry, looked up): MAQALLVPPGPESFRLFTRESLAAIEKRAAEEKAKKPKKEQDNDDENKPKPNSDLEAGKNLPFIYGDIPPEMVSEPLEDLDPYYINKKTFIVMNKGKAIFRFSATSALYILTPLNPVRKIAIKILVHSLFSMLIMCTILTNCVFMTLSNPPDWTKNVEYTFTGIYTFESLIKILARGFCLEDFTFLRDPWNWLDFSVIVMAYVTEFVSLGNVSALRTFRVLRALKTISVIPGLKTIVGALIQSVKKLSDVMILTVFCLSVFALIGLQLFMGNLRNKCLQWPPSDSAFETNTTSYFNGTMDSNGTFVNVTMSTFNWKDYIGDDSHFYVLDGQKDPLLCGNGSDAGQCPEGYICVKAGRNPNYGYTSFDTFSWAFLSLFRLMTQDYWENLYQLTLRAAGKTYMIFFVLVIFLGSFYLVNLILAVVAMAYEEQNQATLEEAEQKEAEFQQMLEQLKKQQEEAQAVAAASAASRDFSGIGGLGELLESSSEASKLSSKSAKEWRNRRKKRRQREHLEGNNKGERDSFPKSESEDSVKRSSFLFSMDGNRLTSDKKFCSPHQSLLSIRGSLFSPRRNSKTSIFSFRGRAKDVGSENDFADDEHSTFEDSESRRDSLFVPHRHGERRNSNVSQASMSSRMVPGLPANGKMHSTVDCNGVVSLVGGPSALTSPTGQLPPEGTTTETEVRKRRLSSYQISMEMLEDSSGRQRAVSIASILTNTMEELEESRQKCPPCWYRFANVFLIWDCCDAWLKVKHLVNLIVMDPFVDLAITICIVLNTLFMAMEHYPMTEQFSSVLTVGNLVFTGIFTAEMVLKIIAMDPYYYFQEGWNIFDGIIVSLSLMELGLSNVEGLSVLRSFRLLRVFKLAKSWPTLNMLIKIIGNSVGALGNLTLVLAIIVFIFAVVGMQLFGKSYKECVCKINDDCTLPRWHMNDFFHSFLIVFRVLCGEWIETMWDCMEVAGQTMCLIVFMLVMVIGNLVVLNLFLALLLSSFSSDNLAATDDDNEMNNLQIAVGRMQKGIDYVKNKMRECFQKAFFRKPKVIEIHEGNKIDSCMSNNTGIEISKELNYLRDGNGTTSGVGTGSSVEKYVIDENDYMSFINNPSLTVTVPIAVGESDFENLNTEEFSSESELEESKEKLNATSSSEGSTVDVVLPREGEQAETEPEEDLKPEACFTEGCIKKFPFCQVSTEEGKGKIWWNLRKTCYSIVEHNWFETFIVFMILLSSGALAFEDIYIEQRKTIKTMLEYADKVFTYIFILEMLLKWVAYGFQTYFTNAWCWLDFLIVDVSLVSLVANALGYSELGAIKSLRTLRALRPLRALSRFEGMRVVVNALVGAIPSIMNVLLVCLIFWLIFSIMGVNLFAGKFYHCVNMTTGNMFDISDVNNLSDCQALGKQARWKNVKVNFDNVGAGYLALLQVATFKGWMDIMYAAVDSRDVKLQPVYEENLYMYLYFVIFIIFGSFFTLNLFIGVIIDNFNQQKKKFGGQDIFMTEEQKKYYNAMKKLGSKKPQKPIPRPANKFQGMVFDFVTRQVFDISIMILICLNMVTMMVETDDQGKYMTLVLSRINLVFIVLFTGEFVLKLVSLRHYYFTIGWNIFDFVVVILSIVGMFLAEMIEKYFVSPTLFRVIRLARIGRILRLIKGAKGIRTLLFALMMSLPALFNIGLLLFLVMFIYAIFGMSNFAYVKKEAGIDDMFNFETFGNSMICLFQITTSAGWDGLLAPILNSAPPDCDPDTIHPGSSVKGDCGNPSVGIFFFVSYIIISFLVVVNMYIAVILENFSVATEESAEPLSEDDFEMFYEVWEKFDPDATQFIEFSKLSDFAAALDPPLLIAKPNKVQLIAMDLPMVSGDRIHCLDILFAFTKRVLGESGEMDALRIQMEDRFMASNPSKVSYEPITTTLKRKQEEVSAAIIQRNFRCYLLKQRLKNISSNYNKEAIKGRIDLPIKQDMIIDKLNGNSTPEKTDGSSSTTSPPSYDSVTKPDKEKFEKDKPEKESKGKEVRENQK

Sequence of hNav1.7 (Q15858 1-1977 isoform Q15858-3): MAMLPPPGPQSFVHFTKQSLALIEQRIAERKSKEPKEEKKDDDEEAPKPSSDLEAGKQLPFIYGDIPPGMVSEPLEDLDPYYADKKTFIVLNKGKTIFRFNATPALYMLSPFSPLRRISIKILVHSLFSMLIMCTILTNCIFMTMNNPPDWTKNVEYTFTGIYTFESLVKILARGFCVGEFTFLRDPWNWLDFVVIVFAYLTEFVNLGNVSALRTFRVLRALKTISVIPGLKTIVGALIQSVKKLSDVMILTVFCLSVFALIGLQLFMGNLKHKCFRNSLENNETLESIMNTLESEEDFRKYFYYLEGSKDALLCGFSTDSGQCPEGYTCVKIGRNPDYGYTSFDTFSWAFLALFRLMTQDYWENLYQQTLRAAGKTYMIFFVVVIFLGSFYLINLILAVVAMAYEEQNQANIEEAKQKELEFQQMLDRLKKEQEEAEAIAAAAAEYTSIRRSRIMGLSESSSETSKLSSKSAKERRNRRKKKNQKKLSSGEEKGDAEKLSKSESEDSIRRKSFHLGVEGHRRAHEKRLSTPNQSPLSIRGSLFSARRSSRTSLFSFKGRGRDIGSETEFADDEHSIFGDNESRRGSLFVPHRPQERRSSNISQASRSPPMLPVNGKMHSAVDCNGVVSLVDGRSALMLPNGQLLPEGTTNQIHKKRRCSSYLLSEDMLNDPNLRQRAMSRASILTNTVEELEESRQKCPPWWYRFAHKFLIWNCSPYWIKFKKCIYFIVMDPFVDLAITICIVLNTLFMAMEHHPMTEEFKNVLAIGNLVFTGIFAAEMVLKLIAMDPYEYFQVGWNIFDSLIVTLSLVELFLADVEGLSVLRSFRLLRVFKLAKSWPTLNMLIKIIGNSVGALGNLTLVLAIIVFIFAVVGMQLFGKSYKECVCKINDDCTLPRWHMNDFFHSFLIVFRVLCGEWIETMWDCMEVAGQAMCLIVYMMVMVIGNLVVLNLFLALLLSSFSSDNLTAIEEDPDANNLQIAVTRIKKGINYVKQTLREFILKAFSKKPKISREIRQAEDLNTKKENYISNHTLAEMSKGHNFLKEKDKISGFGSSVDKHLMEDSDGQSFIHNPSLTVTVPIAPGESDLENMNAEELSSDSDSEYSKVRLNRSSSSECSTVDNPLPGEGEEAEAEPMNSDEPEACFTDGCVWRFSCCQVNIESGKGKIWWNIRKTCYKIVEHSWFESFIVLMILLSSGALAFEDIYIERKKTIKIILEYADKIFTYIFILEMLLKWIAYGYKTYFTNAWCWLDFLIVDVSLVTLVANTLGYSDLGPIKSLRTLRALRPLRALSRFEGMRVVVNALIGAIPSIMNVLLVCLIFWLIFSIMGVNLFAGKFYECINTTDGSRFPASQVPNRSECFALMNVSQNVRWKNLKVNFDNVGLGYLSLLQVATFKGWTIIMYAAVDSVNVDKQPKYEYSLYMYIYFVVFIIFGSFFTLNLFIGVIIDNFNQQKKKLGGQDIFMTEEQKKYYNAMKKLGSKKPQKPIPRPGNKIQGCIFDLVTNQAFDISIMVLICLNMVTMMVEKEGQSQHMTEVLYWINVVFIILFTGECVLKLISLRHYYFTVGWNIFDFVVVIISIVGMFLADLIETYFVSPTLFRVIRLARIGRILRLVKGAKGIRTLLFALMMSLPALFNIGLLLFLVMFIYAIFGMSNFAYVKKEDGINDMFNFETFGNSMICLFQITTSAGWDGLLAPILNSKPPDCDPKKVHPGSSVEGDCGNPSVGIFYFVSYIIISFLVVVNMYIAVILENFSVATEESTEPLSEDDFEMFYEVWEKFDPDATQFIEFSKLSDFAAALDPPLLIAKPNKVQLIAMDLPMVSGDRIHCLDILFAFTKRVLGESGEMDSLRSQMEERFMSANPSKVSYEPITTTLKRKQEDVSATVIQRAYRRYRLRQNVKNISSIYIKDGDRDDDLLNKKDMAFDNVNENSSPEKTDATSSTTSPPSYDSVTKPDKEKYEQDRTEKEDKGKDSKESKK
Sequence of human Nav1.7 (Q15858 1-1977 isoform Q15858-3): as above

| SMILES | IC50 [2] [µM] | Ki [3] [µM] | also measured |
| --- | --- | --- | --- |
| C[C@H](Nc1cc(C(N)=O)nc(-c2ccc(Oc3ccc(OC(F)(F)F)cc3)cc2)n1)C(N)=O [Cpd No. 84, (S)-6-((1-amino-1-oxopropan-2-yl)amino)-2-(4-(4-(trifluoromethoxy)phenoxy)phenyl)pyrimidine-4-carboxamide] |  |  | SNL-induced mechanical hyperalgesia in rats [1]: reduced SNL-induced mechanical hyperalgesia |
| CCN(CC)Cc1cc(C(F)(F)F)ccc1Oc1ccc(-c2nc(N[C@H](C)C(N)=O)cc(C(N)=O)n2)cc1 [Cpd No. 215, (R)-6-((1-amino-1-oxopropan-2-yl)amino)-2-(4-(2-((diethylamino)methyl)-4-(trifluoromethyl)phenoxy)phenyl)pyrimidine-4-carboxamide] | 7.35 | 1.39 |  |
| NC(=O)c1cc(O[C@H]2CCNC2=O)nc(N2[C@@H]3CC[C@H]2C[C@@H](Oc2ccc(C(F)(F)F)cn2)C3)n1 [Cpd No. 224, 6-(((S)-2-oxopyrrolidin-3-yl)oxy)-2-((1R,3S,5S)-3-((5-(trifluoromethyl)pyridin-2-yl)oxy)-8-azabicyclo[3.2.1]octan-8-yl)pyrimidine-4-carboxamide] | 1.01 | 0.81 |  |
| NC(=O)c1cc(O[C@H]2CCNC2=O)nc(-c2ccc(Oc3ccc(C(F)(F)F)cn3)cc2)n1 [Cpd No. 227, (S)-6-((2-oxopyrrolidin-3-yl)oxy)-2-(4-((5-(trifluoro-methyl)pyridin-2-yl)oxy)phenyl)pyrimidine-4-carboxamide] | 0.55 | 0.15 |  |
| C[C@H](Nc1cc(C(N)=O)nc(-c2ccc(Cc3ccc(C(F)(F)F)cn3)cc2)n1)C(N)=O [Cpd No. 228, (S)-6-((1-amino-1-oxopropan-2-yl)amino)-2-(4-((5-(trifluoro-methyl)pyridin-2-yl)methyl)-phenyl)pyrimidine-4-carboxamide] | 1.1 | 1.1 |  |
| NC(=O)c1cc(O[C@H]2CCNC2=O)nc(-c2ccc(Cc3ccc(C(F)(F)F)cn3)cc2)n1 [Cpd No. 229, (S)-6-((2-oxopyrrolidin-3-yl)oxy)-2-(4-((5-(trifluoromethyl)pyridin-2-yl)methyl)phenyl)pyrimidine-4-carboxamide] | 0.58 | 0.62 |  |
| NC(=O)c1cc(O[C@H]2CCNC2=O)nc(-c2ccc(Oc3ccc(C(F)(F)F)cc3CN3CCCC3)cc2)n1 [Cpd No. 230, (S)-6-((2-oxopyrrolidin-3-yl)oxy)-2-(4-(2-(pyrrolidin-1-ylmethyl)-4-(trifluoromethyl)-phenoxy)phenyl)pyrimidine-4-carboxamide] | 1.72 | 0.74 |  |
| NC(=O)c1cc(O[C@H]2CCNC2=O)nc(-c2ccc(Oc3ccc(C4CC4)cn3)cc2)n1 [Cpd No. 234, (S)-2-(4-((5-cyclopropylpyridin-2-yl)oxy)phenyl)-6-((2-oxopyrrolidin-3-yl)oxy)-pyrimidine-4-carboxamide] | 1.2 | 0.67 |  |
| NC1=N[C@H](O)[C@H]2[C@H]3O[C@]4(O)O[C@@H]([C@@H](O)[C@@]2(N1)[C@@H]4O)[C@]3(O)CO [TTX, tetrodotoxin] |  |  | pIC50 [4]: 4.30; pIC50 [5]: 7.82 |
| C[C@H](Oc1cc(C(N)=O)nc(-c2ccc(Oc3ccc(C(F)(F)F)cc3)cc2)n1)C(N)=O [compound 98] |  |  | SNL-induced mechanical hyperalgesia in rats [1]: reduced SNL-induced mechanical hyperalgesia |
| NC(=O)c1cc(N[C@H]2CCNC2=O)nc(-c2ccc(Oc3ccc(C(F)(F)F)cn3)cc2)n1 [compound 99, (S)-6-((2-oxopyrrolidin-3-yl)amino)-2-(4-((5-(trifluoromethyl)pyridin-2-yl)oxy)phenyl)pyrimidine-4-carboxamide] |  |  | SNL-induced mechanical hyperalgesia in rats [1]: reduced SNL-induced mechanical hyperalgesia |
